Test results: patent publication US20170121344A1 (Siga Technologies, Inc., priority 2009, published 2017)
Where two headings read alike, the source gives them in different places.

Test system: Dengue-2 (Strain New Guinea C)
Experiment: Viral yield assay against Dengue-2 in Vero cells
Format: cell-based, Dengue virus
Conditions: Dengue virus
Method in brief: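 Virus yield, titered on Vero cells from cultures harvested at 48 h post infection, gave the EC50. Cultures were infected at MOI 0.1 with dengue-2 and treated with compound or DMSO at 37° C. DENV-1 and DENV-4 were determined similarly.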

[1] = Vero cells, MOI 0.1, harvested 48 hours post infection, read-out: Activity (EC50 class) against Dengue-2 Virus in Vero cells
[2] = Vero, 48 h, read-out: Activity (EC50 class) against Dengue-2 Virus in Vero cells
[3] = DENV2, viral yield assay, Vero cells, MOI 0.1, 48 hours post infection, read-out: Activity (EC50 in μM) DENV-2

COc1ccc(-c2cc(C3CC3)nc3sc(C(N)=O)c(N)c23)cc1 [Compound 7, 3-Amino-6-cyclopropyl-4-(4-methoxy-phenyl)-thieno[2,3-b]pyridine-2-carboxylic acid amide] was tested, and the EC50 [1] was < 5 µM.

CC(C)Cc1ccc2c(N)c(C(=O)Nc3ccccc3)sc2n1 [Compound 206, 3-Amino-6-isobutyl-thieno[2,3-b]pyridine-2-carboxylic acid phenylamide] was tested, and the EC50 [2] was > 25 µM.

With Nc1c(C(=O)Nc2ccccc2)sc2nc3c(cc12)CCC3 [Compound 173, 3-Amino-6,7-dihydro-5H-cyclopenta[b]thieno[3,2-e]pyridine-2-carboxylic acid phenylamide] the EC50 [1] was > 25 µM.

For CCN1CCCC(NC(=O)c2sc3nc(C)cc(COC)c3c2N)C1 (stereo not shown) [Compound 147, 3-Amino-4-methoxymethyl-6-methyl-thieno[2,3-b]pyridine-2-carboxylic acid (1-ethyl-piperidin-3-yl)-amide], the EC50 [1] was > 25 µM.

For Cc1cc(C(F)(F)F)nc2sc(C(=O)Nc3ccccc3I)c(N)c12 [Compound 131, 3-Amino-4-methyl-6-trifluoromethyl-thieno[2,3-b]pyridine-2-carboxylic acid (2-iodo-phenyl)-amide], the EC50 [1] was > 25 µM.

CC1(C)Cc2nc3sc4c(=O)[nH]cnc4c3cc2CS1 [Compound 232, 8,8-Dimethyl-8,9-dihydro-2H,6H-7,11-dithia-2,4,10-triaza-benzo[b]fluoren-1-one] was tested, and the EC50 [2] was > 25 µM.

In the case of CCOc1cccc(NC(=O)c2sc3nc(-c4ccc(F)cc4)ccc3c2N)c1 [Compound 611, 3-amino-N-(3-ethoxyphenyl)-6-(4-fluorophenyl)thieno[2,3-b]pyridine-2-carboxamide], the EC50 [3] is reported as < 5 µM.

In the case of COc1ccc(OC)c(CN2CCN(C(=O)c3sc4nc(C)cc(C)c4c3C)CC2)c1 [Compound 407, [4-[(2,5-dimethoxyphenyl)methyl)piperazin-1-yl]-(3,4,6-trimethylthieno [2,3-b]pyridin-2-yl)methanone], the EC50 [3] is reported as > 25 µM.

In the case of Cc1cc(F)ccc1NC(=O)c1sc2nc3c(cc2c1N)CN(C)CC3 [Compound 265, 3-Amino-6-methyl-5,6,7,8-tetrahydro-thieno[2,3-b][1,6]naphthyridine-2-carboxylic acid (4-fluoro-2-methyl-phenyl)-amide], the EC50 [1] is reported as > 25 µM.

Work on COc1ccc(-c2ccc3c(N)c(C(=O)NC(C)C)sc3n2)cc1 [Compound 101, 3-Amino-6-(4-methoxy-phenyl)-thieno[2,3-b]pyridine-2-carboxylic acid isopropylamide] yielded an EC50 [1] of 5 to 25 µM.

In the case of NC(=O)c1sc2nc(N3CCOCC3)c3c(c2c1N)CCCC3 [Compound 171, 1-Amino-5-morpholin-4-yl-6,7,8,9-tetrahydro-thieno[2,3-c]isoquinoline-2-carboxylic acid amide], the EC50 [2] is reported as > 25 µM.

Work on Nc1c(C(=O)Nc2ccccc2C(F)(F)F)sc2ncccc12 [Compound 424, 3-amino-N-[2-(trifluoromethyl)phenyl] thieno[2,3-b]pyridine-2-carboxamide] yielded an EC50 [3] of 5 to 25 µM.

Molecule Cc1cc(NC(=O)c2sc3nc4c(c(-c5cccs5)c3c2N)CN(C)CC4)no1 [Compound 103, 3-Amino-6-methyl-4-thiophen-2-yl-5,6,7,8-tetrahydro-thieno[2,3-b][1,6]naphthyridine-2-carboxylic acid (5-methyl-isoxazol-3-yl)amide] has an EC50 [1] of 5 to 25 µM.

With CCN(CC)c1ccc(NC(=O)c2sc3nc4c(cc3c2N)CN(C)CC4)cc1 [Compound 276, 3-Amino-6-methyl-5,6,7,8-tetrahydro-thieno[2,3-b][1,6]naphthyridine-2-carboxylic acid (4-diethylamino-phenyl)-amide] the EC50 [1] was > 25 µM.

For O=C(Nc1ccc(OC(F)(F)F)cc1)c1sc2ncccc2c1OCc1ccc(Cl)c(Cl)c1 [Compound 378, 3-[(3,4-dichlorophenyl)methoxy]-N-[4-(trifluoromethoxy)phenyl]thieno[2,3-b] pyridine-2-carboxamide], the EC50 [3] was < 5 µM.

In the case of Nc1c(C(=O)N2CCOCC2)sc2nc(-c3ccccc3)cc(C(F)(F)F)c12 [Compound 89, (3-Amino-6-phenyl-4-trifluoromethyl-thieno[2,3-b]pyridin-2-yl)-morpholin-4-yl-methanone], the EC50 [1] is reported as 5 to 25 µM.

For Cc1cc(C)c2c(N)c(C(=O)Nc3ccc(F)c(Cl)c3)sc2n1 [Compound 200, 3-Amino-4,6-dimethyl-thieno[2,3-b]pyridine-2-carboxylic acid (3-chloro-4-fluoro-phenyl)-amide], the EC50 [2] was > 25 µM.

For COc1cc2c(cc1OC)CN(C(=O)c1sc3nc4c(cc3c1N)CN(C)CC4)CC2 [Compound 274, (3-Amino-6-methyl-5,6,7,8-tetrahydro-thieno[2,3-b][1,6]naphthyridin-2-yl)-(6,7-dimethoxy-3,4-dihydro-1H-isoquinolin-2-yl)-methanone], the EC50 [1] was > 25 µM.

CCN(C(=O)c1sc2nc(C)cc(C)c2c1N)c1ccccc1 [Compound 102, 3-Amino-4,6-dimethyl-thieno[2,3-b]pyridine-2-carboxylic acid ethyl-phenyl-amide] gave an EC50 [1] of 5 to 25 µM.

In the case of COc1cc(NC(=O)c2sc3nc(C)cc(C)c3c2C)cc(OC)c1OC [Compound 401, 3,4,6-trimethyl-N-(3,4,5-trimethoxyphenyl)thieno[2,3-b]pyridine-2-carboxamide], the EC50 [3] is reported as > 25 µM.

In the case of CCOc1ccccc1NC(=O)c1sc2nc(-c3ccc4c(c3)OCO4)ccc2c1N [Compound 517, 3-amino-6-(1,3-benzodioxol-5-yl)-N-(2-ethoxyphenyl)thieno[2,3-b]pyridine-2-carboxamide], the EC50 [3] is reported as < 5 µM.

Work on Cc1cc(C)c2c(C)c(C(=O)Nc3ccc4c(c3)OCCO4)sc2n1 [Compound 396, N-(2,3-dihydro-1,4-benzodioxin-6-yl)-3,4,6-trimethyl-thieno[2,3-b]pyridine-2-carboxamide] yielded an EC50 [3] of 5 to 25 µM.

In the case of COc1ccc(NC(=O)c2sc3nc4c(c(-c5cccs5)c3c2N)CN(C)CC4)cc1 [Compound 28, 3-Amino-6-methyl-4-thiophen-2-yl-5,6,7,8-tetrahydro-thieno[2,3-b][1,6]naphthyridine-2-carboxylic acid (4-methoxy-phenyl)-amide], the EC50 [1] is reported as < 5 µM.

For COCc1cc(C)nc2sc(C(=O)Nc3ccccc3C)c(N)c12 [Compound 210, 3-Amino-4-methoxymethyl-6-methyl-thieno[2,3-b]pyridine-2-carboxylic acid o-tolylamide], the EC50 [2] was > 25 µM.

In the case of Nc1c(C(=O)Nc2nccs2)sc2nc(-c3ccccc3)cc(C(F)(F)F)c12 [Compound 192, 3-Amino-6-phenyl-4-trifluoromethyl-thieno[2,3-b]pyridine-2-carboxylic acid thiazol-2-ylamide], the EC50 [1] is reported as > 25 µM.

In the case of Nc1c(C(=O)Nc2ccc(C(=O)O)cc2)sc2nc(-c3ccc(Cl)cc3)ccc12 [Compound 334, 4-[[3-amino-6-(4-chlorophenyl)thieno [2,3-b]pyridine-2-carbonyl]amino] benzoic acid], the EC50 [3] is reported as < 5 µM.

In the case of COCc1cc(C)nc2sc(C(=O)Nc3cc(C)ccc3F)c(N)c12 [Compound 242, 3-Amino-4-methoxymethyl-6-methyl-thieno[2,3-b]pyridine-2-carboxylic acid (2-fluoro-5-methyl-phenyl)-amide], the EC50 [1] is reported as > 25 µM.

In the case of Nc1c(C(=O)Nc2cc(C(F)(F)F)ccc2Cl)sc2nc3c(cc12)CCCC3 [Compound 193, 3-Amino-5,6,7,8-tetrahydro-thieno[2,3-b]quinoline-2-carboxylic acid (2-chloro-5-trifluoromethyl-phenyl)-amide], the EC50 [1] is reported as > 25 µM.

With CCSc1nc2ccc(NC(=O)c3sc4nc(-c5cccc(OC)c5)ccc4c3N)cc2s1 [Compound 567, 3-amino-N-(2-ethylsulfanyl-1,3-benzo-thiazol-6-yl)-6-(3-methoxphenyl)thieno [2,3-b]pyridine-2-carboxamide] the EC50 [3] was < 5 µM.

For Cc1cc(C)c2c(N)c(C(=O)Nc3ccccc3F)sc2n1 [Compound 178, 3-Amino-4,6-dimethyl-thieno[2,3-b]pyridine-2-carboxylic acid (2-fluoro-phenyl)-amide], the EC50 [2] was > 25 µM.

In the case of CC(C)N1CCc2nc3sc(C(=O)Nc4ccc(OC(F)(F)F)cc4)c(N)c3cc2C1 [Compound 59, 3-Amino-6-isopropyl-5,6,7,8-tetrahydro-thieno[2,3-b][1,6]naphthyridine-2-carboxylic acid (4-trifluoromethoxy-phenyl)-amide], the EC50 [1] is reported as < 5 µM.

With Cc1cc(C)c2c(N)c(C(=O)NCC(=O)O)sc2n1 [Compound 199, [(3-Amino-4,6-dimethyl-thieno[2,3-b]pyridine-2-carbonyl)-amino]-acetic acid] the EC50 [1] was > 25 µM.

For CC1=NN(C(=O)c2sc3nc(-c4cccs4)cc(C(F)(F)F)c3c2C)C(O)(C(F)(F)F)C1 (stereo not shown) [Compound 387, [5-hydroxy-3-methyl-5-(trifluoromethyl)-4H-pyrazol-1-yl]-[3-methyl-6-(2-thienyl)-4-(trifluoromethyl)thieno[2,3-b]pyridin-2-yl]methanone], the EC50 [3] was 5 to 25 µM.

For Nc1c(C(=O)Nc2cc(Cl)ccc2Cl)sc2nc(-c3ccc(Cl)cc3)ccc12 [Compound 347, 3-amino-6-(4-chlorophenyl)-N-(2,5-dichloro-phenyl)thieno [2,3-b]pyridine-2-carboxamide], the EC50 [3] was < 5 µM.

Work on CN1CCc2nc3sc(C(=O)NC(C)(C)C)c(N)c3cc2C1 [Compound 107, 3-Amino-6-methyl-5,6,7,8-tetrahydro-thieno[2,3-b][1,6]naphthyridine-2-carboxylic acid tart-butylamide] yielded an EC50 [2] of 5 to 25 µM.

For COc1ccc(-c2ccc3c(N)c(C(=O)Nc4ccc(Br)cc4)sc3n2)cc1OC [Compound 451, 3-amino-N-(4-bromophenyl)-6-(3,4-dimethoxyphenyl)thieno[2,3-b]pyridine-2-carboxamide], the EC50 [3] was < 5 µM.

In the case of COc1cccc(-c2ccc3c(N)c(C(=O)Nc4ccc(OC)c(OC)c4)sc3n2)c1 [Compound 508, 3-amino-N-(3,4-dimethoxyphenyl)-6-(3-methoxyphenyl)thieno[2,3-b]pyridine-2-carboxamide], the EC50 (DENV2, Vero, 48 h, read-out: Activity (EC50 in μM) DENV-2) is reported as < 5 µM.
